Results from US5128343A, “Derivatives of pyrimidinyl-piperazinyl-alkyl azoles with anxiolytic and/or tranquilizing activity” (Laboratorios del Dr. Esteve, priority 1989, dated 1992).
Structures can show the parent of a compound that is named as a salt. Where two headings read alike, the source gives them in different places.

System: male Wistar rats
Assay: conditioned avoidance response test (anxiolytic and tranquilizing action)
Format: in vivo
Settings: suppression of conditioned avoidance response, oral administration 45 minutes before study; for Activity %: dose not given
Method: In this test, male Wistar rats of 200 grams weight are used, trained to jump over a barrier in an avoidance and exit cage (shuttle box) (Letica, reference L1 910 and L1 2700) in the 30 seconds following their introduction into the cage.
The products with anxiolytic or tranquilizing activity suppress the conditioned avoidance response.
Training: first day: 11 tests, at intervals of 3 minutes. Electro-shock on the paws, at 30 seconds (5 mA, 0.1 s, 10 s).
Second and third days: 2 tests per day, solely with selected rats [sum of the points of the first day (excepting the first test)>14].
Day of test: groups formed of selected rats. Oral administration of the product or of the vehicle 45 minutes before starting the study.

[1] = Rattus norvegicus, po, 0.75 h, read-out: ED50

| Compound | ED50 [1] [mg/kg] | Activity % [%] | ED50 (dihydrochloride, 45 min) [mg/kg] | Activity % (dihydrochloride) [%] | ED50 (45 min) [mg/kg] |
| --- | --- | --- | --- | --- | --- |
| O=S(=O)(Nc1cnn(CCCCN2CCN(c3ncccn3)CC2)c1)c1ccccc1 [Example 37] | 85 | 46 | – | – | – |
| O=C(Nc1cnn(CCCCN2CCN(c3ncccn3)CC2)c1)c1ccccc1 [Example 17] | 65.9 | 62 | – | – | – |
| CCS(=O)(=O)Nc1cnn(CCCCN2CCN(c3ncccn3)CC2)c1 [Example 41] | 29.3 | 77 | – | – | – |
| Cc1nn(CCCCN2CCN(c3ncccn3)CC2)c(C)c1S(=O)(=O)N(C)C [Example 42] | 82 | 45 | – | – | – |
| c1ccc(-c2cnn(CCCCN3CCN(c4ncccn4)CC3)c2)cc1 [Example 35] | 27.4 | 100 | – | – | – |
| O=[N+]([O-])c1cnn(CCCCN2CCN(c3ncccn3)CC2)c1 [Example 7, 1H-pyrazole-4-nitro-1-(4-(4-(2-pyrimidinyl)-1-piperazinyl)-butyl)] | 6.2 | 98 | – | – | – |
| COc1ccc(-c2cnn(CCCCN3CCN(c4ncccn4)CC3)c2)cc1 [Example 32] | 22.5 | 60 | – | – | – |
| Clc1cnn(CCCCN2CCN(c3ncccn3)CC2)c1 [Example 50, 1H-pyrazole-4-chloro-1-(4-(4-(2-pyrimidinyl)-1-piperazinyl)-butyldihydrochloride] | – | – | 4.9 | 99 | – |
| CCC(C)Nc1cnn(CCCCN2CCN(c3ncccn3)CC2)c1 (stereo not shown) [Example 19] | 29.7 | 80 | – | – | – |
| Clc1ccc(-c2cnn(CCCCN3CCN(c4ncccn4)CC3)c2)cc1 [Example 33] | 15.7 | 90 | – | – | – |
| Cc1c(Br)cnn1CCCCN1CCN(c2ncccn2)CC1 [Example 24, 1H-pyrazole-4-bromo-5-methyl-1-(4-(4-(2-pyrimidinyl)-1-piperazinyl)-butyl)] | 60.6 | 53 | – | – | – |
| CN(C)S(=O)(=O)c1cnn(CCCCN2CCN(c3ncccn3)CC2)c1 [Example 43] | 72 | 63 | – | – | – |
| Brc1cnc(N2CCN(CCCCn3cc(Br)cn3)CC2)nc1 [Example 20] | 76.8 | 59 | – | – | – |
| O=S(=O)(O)c1cnn(CCCCN2CCN(c3ncccn3)CC2)c1 [Example 44] | – | 15 | – | – | – |
| c1cnc(N2CCN(CCCCn3cc(-n4cccc4)cn3)CC2)nc1 [Example 34] | 5 | 100 | – | – | – |
| Cc1cn(CCCCN2CCN(c3ncccn3)CC2)cn1 [Example 47] | 80 | 50 | – | – | – |
| Cc1ccc(S(=O)(=O)Nc2cnn(CCCCN3CCN(c4ncccn4)CC3)c2)cc1 [Example 38] | 102 | 37 | – | – | – |
| CCCCS(=O)(=O)Nc1cnn(CCCCN2CCN(c3ncccn3)CC2)c1 [Example 39] | 73 | 57 | – | – | – |
| O=C1c2ccccc2S(=O)(=O)N1CCCCN1CCN(c2ncccn2)CC1 [Ipsapirone, reference compound] | 26.1 | 98 | – | – | – |
| Cc1cnn(CCCCN2CCN(c3ncccn3)CC2)c1 [Example 4] | < 20 | 98 | – | – | – |
| Cc1c(-c2ccccc2)cnn1CCCCN1CCN(c2ncccn2)CC1 [Example 28] | 32.2 | 75 | – | – | – |
| Cc1cncn1CCCCN1CCN(c2ncccn2)CC1 [Example 48] | 75 | 52 | – | – | – |
| N#Cc1cnn(CCCCN2CCN(c3ncccn3)CC2)c1 [Example 12] | – | 100 | – | – | – |
| CC(=O)Nc1cnn(CCCCN2CCN(c3ncccn3)CC2)c1 [Example 18] | 28.8 | 89 | – | – | – |
| c1cnc(N2CCN(CCCCn3ncc4c3CCCC4)CC2)nc1 [Example 26] | 19.5 | 97 | – | – | – |

| Compound | ED50 [1] [mg/kg] | Activity % [%] | ED50 (dihydrochloride, 45 min) [mg/kg] | Activity % (dihydrochloride) [%] | ED50 (45 min) [mg/kg] |
| --- | --- | --- | --- | --- | --- |
| CCCS(=O)(=O)Nc1cnn(CCCCN2CCN(c3ncccn3)CC2)c1 [Example 40] | 73 | 57 | – | – | – |
| Cc1nn(CCCCN2CCN(c3ncccn3)CC2)cc1-c1ccccc1 [Example 29] | 31.9 | 78 | – | – | – |
| Cc1nn(CCCCN2CCN(c3ncccn3)CC2)c(C)c1[N+](=O)[O-] [Example 3] | 58.3 | 61 | – | – | – |
| c1cnc(N2CCN(CCCCn3ncc4ccccc43)CC2)nc1 [Example 5] | 80 | 45 | – | – | – |
| Fc1cnn(CCCCN2CCN(c3ncccn3)CC2)c1 [Example 13] | – | 85 | – | – | – |
| Clc1cnn(CCCCN2CCN(c3ncccn3)CC2)c1 [Example 8, 1H-pyrazole-4-chloro-1-(4-(4-(2-pyrimidinyl)-1-piperazinyl)-butyl)] | – | 95 | – | – | 17.9 |
| Cc1nn(CCCCN2CCN(c3ncccn3)CC2)cc1Br [Example 25] | 58.3 | 59 | – | – | – |
| CCOC(=O)c1cnn(CCCCN2CCN(c3ncccn3)CC2)c1 [Example 9] | – | 14 | – | – | – |
| Clc1ncn(CCCCN2CCN(c3ncccn3)CC2)c1Cl [Example 46] | – | 99 | – | – | – |
| Brc1cnn(CCCCN2CCN(c3ncccn3)CC2)c1 [Example 11] | 28.9 | 95 | – | – | – |
| Clc1cnn(CCCCN2CCN(c3ncc(Br)cn3)CC2)c1 [Example 21] | 51.7 | 48 | – | – | – |
| Cc1cc(C)n(CCCCN2CCN(c3ncccn3)CC2)n1 [Example 2] | 80 | 50 | – | – | – |
| O=C1CC2(CCCC2)CC(=O)N1CCCCN1CCN(c2ncccn2)CC1 [Buspirone, reference compound] | 17.2 | 99 | – | – | – |
| Nc1cnn(CCCCN2CCN(c3ncccn3)CC2)c1 [Example 15, 1H-pyrazole-4-amino-1-(4-(4-(2-pyrimidinyl)-1-piperazinyl)-butyl)] | 27.7 | 79 | – | – | – |
| c1cnc(N2CCN(CCCCn3cccn3)CC2)nc1 [Example 1, 1H-pyrazole-1-(4-(4-(2-pyrimidinyl)-1-piperazinyl)-butyl)] | 26.2 | 98 | – | – | – |
| c1cnc(N2CCN(CCCCn3cc4c(n3)CCCC4)CC2)nc1 [Example 27] | 18.9 | 98 | – | – | – |
| Fc1cn(CCCCN2CCN(c3ncccn3)CC2)nc1Cl [Example 30] | 53.9 | 85 | – | – | – |
| Cc1nn(CCCCN2CCN(c3ncccn3)CC2)c(C)c1Br [Example 6] | 80 | 51 | – | – | – |
| c1ccc(-c2cc(-c3ccccc3)n(CCCCN3CCN(c4ncccn4)CC3)n2)cc1 [Example 36] | 122 | 31 | – | – | – |
| c1cnc(N2CCN(CCCCn3ccnc3)CC2)nc1 [Example 45] | 93 | 35 | – | – | – |
| Cc1cc(-c2ccccc2)n(CCCCN2CCN(c3ncccn3)CC2)n1 [Example 10] | – | 24 | – | – | – |
| Clc1cnn(CCCCN2CCN(c3ncccn3)CC2)c1 [Example 49] | – | 100 | – | – | 14.5 |
| Cc1ccnn1CCCCN1CCN(c2ncccn2)CC1 [Example 22] | – | 47 | – | – | – |
| CS(=O)(=O)Nc1cnn(CCCCN2CCN(c3ncccn3)CC2)c1 [Example 16, 1H-pyrazole-4-methylsulfonamido-1-(4-(4-(2-pyrimidinyl)-1-piperazinyl)-butyl)] | 40 | 64 | – | – | – |
